Active and inactive are the calls of the source. The rule behind the calls is not given here. Where a SMILES comes first, the peptide text is derived from it.
How the values were obtained:
[1] = molecular target: Replicase polyprotein 1ab (Severe acute respiratory syndrome coronavirus 2, UniProt P0DTD1); test: Inhibition of SARS-CoV-2 MPro using protease substrate preincubated with enzyme for 10 mins followed by substrate addition and measured after 5 mins by FRET based assay
[2] = molecular target: Replicase polyprotein 1ab (Severe acute respiratory syndrome coronavirus 2) (UniProt P0DTD1); test: Inhibition of SARS-CoV-2 MPro using protease substrate at 5 uM preincubated with enzyme for 10 mins followed by substrate addition and measured after 5 mins by FRET based assay; settings: time 15.0 min
[3] = molecular target: Replicase polyprotein 1ab (Severe acute respiratory syndrome coronavirus 2) (UniProt P0DTD1); test: Inhibition of SARS-CoV-2 MPro using protease substrate at 1 uM preincubated with enzyme for 10 mins followed by substrate addition and measured after 5 mins by FRET based assay; settings: time 15.0 min
[4] = molecular target: Replicase polyprotein 1ab (Severe acute respiratory syndrome coronavirus 2) (UniProt P0DTD1); test: Inhibition of SARS-CoV-2 MPro using protease substrate at 5 uM preincubated with enzyme for 10 mins followed by substrate addition and measured after 5 mins in presence of 4 mM DTT by FRET based assay; settings: time 15.0 min
Cathepsin K [5] = molecular target: T1, Cathepsin K (Homo sapiens, UniProt P43235); test: Inhibition of human Cathepsin K measured after 30 mins by fluorescence based microplate reader analysis relative to control; assay type: toxicity
T1 sequence (P43235 whole entry): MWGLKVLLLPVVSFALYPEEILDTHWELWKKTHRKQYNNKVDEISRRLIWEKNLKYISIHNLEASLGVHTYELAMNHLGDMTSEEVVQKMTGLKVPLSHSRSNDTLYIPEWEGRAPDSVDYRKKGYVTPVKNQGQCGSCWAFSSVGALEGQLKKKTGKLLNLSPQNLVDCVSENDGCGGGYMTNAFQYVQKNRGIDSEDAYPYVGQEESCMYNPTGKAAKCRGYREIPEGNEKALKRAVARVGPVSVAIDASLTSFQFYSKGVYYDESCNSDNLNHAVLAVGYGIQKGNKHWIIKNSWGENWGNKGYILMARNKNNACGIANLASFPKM

Cathepsin B = Cathepsin B (Homo sapiens, UniProt P07858); test: Inhibition of human Cathepsin B at 20 uM measured after 30 mins by fluorescence based microplate reader analysis relative to control; assay type: toxicity; settings: human Cathepsin B enzyme
Cathepsin K [6] = molecular target: T1, Cathepsin K; test: Inhibition of human Cathepsin K at 20 uM measured after 30 mins by fluorescence based microplate reader analysis relative to control; assay type: toxicity; settings: human Cathepsin K enzyme
[7] = Cytotoxicity against African green monkey Vero E6 cells assessed as cell growth inhibition measured after 48 hrs by CCK8 assay; assay type: toxicity, cell-based, Vero C1008; settings: chlorocebus sabaeus
SARS-CoV-2 [8] = test: Antiviral activity against SARS-CoV-2 infected in African green monkey Vero E6 cells assessed as inhibition of viral infection preincubated for 1 hr followed by incubation in methylcellulose medium for 25 to 26 hrs by TrueBlue based EliSpot analysis; assay type: functional, organism-based; settings: Severe acute respiratory syndrome coronavirus 2, Vero C1008
[9] = molecular target: Replicase polyprotein 1ab (Severe acute respiratory syndrome coronavirus 2) (UniProt P0DTD1); test: Covalent inhibition of SARS-Cov-2 MPro using protease substrate at 1 uM preincubated with enzyme for 5 to 80 mins followed by substrate addition and measured every 10s for 10 mins by FRET based assay; settings: time 15-90 min, TDE = time-dependent effect
SARS-CoV-2 [10] = test: Antiviral activity against SARS-CoV-2; assay type: functional, organism-based; settings: Severe acute respiratory syndrome coronavirus 2

| SMILES | IC50 [1] [nM] | inhibition [3] | further results |
| --- | --- | --- | --- |
| Nc1ccc2c(=O)n(-c3ccccc3)[se]c2c1 | 322 | 87% | inhibition [2]: Active; inhibition [4]: inactive |
| CC(C)(C)OC(=O)N1CCC(n2[se]c3ccccc3c2=O)CC1 | 417 | 85.2% | – |
| NS(=O)(=O)c1ccc(C(=O)N2CCC(n3[se]c4ccccc4c3=O)CC2)cc1 | 550 | 88.3% | – |
| O=c1c2ccccc2[se]n1C1CCN(S(=O)(=O)c2cccs2)CC1 | – | 67.8% | – |
| O=c1c2ccccc2[se]n1-c1ccccc1 [EBSELEN] | – | 88.3% | IC50 (Cathepsin K [5]): > 20000 nM; inhibition at 0.5 h, 20 µM (Cathepsin B): 62%; inhibition at 0.5 h, 20 µM (Cathepsin K [6]): 38%; inhibition [2]: Active; CC50 at 48 h [7]: 70500 nM; EC50 (SARS-CoV-2 [8]): 3780 nM; inhibition [4]: inactive; inhibition [9]: Tde |
| O=c1c2ccccc2[se]n1C1CCN(S(=O)(=O)c2cccnc2)CC1 | 268 | 101% | IC50 (Cathepsin K [5]): > 20000 nM; inhibition at 0.5 h, 20 µM (Cathepsin B): 4%; CC50 at 48 h [7]: 13300 nM; EC50 (SARS-CoV-2 [8]): > 13300 nM |
| CN(C)S(=O)(=O)Nc1ccc(-n2[se]c3ccccc3c2=O)cc1 | 233 | 91.8% | inhibition [2]: Active; CC50 at 48 h [7]: 9910 nM; EC50 (SARS-CoV-2 [8]): > 9910 nM; inhibition [4]: inactive; inhibition [9]: Tde |
| O=c1c2ccccc2[se]n1Cc1ccncc1 | 287 | 97.4% | IC50 (Cathepsin K [5]): > 20000 nM; inhibition at 0.5 h, 20 µM (Cathepsin B): 87%; inhibition at 0.5 h, 20 µM (Cathepsin K [6]): 42%; inhibition [2]: Active; CC50 at 48 h [7]: 55700 nM; EC50 (SARS-CoV-2 [8]): > 20000 nM; inhibition [4]: inactive |
| O=C(OCc1ccccc1)N1CCC(n2[se]c3ccccc3c2=O)CC1 | – | 71.2% | – |
| O=c1c2ccccc2[se]n1Cc1ccc2[nH]ccc2c1 | – | 32.6% | – |
| O=c1c2ccccc2[se]n1C1CCN(S(=O)(=O)C2CC2)CC1 | 356 | 96.2% | CC50 at 48 h [7]: 27500 nM; EC50 (SARS-CoV-2 [8]): > 20000 nM |
| O=c1c2ccccc2[se]n1C1CCNCC1 | – | 57.5% | – |
| O=C(Nc1ccc(-n2[se]c3ccccc3c2=O)cc1)C1CC1 | 490 | 95.5% | – |
| Nc1ccc2[se]n(-c3ccccc3)c(=O)c2c1 | – | 21.8% | – |
| O=c1c2ccc([N+](=O)[O-])cc2[se]n1-c1ccccc1 | – | 49.2% | – |
| O=c1c2ccccc2[se]n1C1CCN(S(=O)(=O)c2cccc(Cl)c2)CC1 | – | 24.7% | – |
| O=C(Nc1ccc2c(=O)n(-c3ccccc3)[se]c2c1)c1cccs1 | – | 38.9% | – |
| CCOC(=O)c1ccc(-n2[se]c3ccccc3c2=O)cc1 | – | 68.4% | inhibition at 0.5 h, 20 µM (Cathepsin K [6]): 5% |
| CC(=O)N[C@@H](CC(C)C)C(=O)N[C@H](C(=O)N[C@H](C=O)CCCCN)C(C)C (Ac-Leu-Val-Lys-aldehyde) | – | – | inhibition at 0.5 h, 20 µM (Cathepsin B): 99% |
| O=c1c2ccccc2[se]n1Cc1cccnc1 | 459 | 80.6% | – |
| CS(=O)(=O)Nc1ccc(C(=O)Nc2ccc(-n3[se]c4ccccc4c3=O)cc2)cc1 | – | inactive | – |
| O=c1c2ccccc2[se]n1Cc1ccc2ccccc2c1 | – | 34.6% | – |
| O=C(NC1CCCC1)C(=O)[C@H](C[C@@H]1CCNC1=O)NC(=O)[C@@H]1[C@H]2CCC[C@H]2CN1C(=O)[C@@H](NC(=O)C(F)(F)F)C1CCCCC1 | – | – | EC50 (SARS-CoV-2 [10]): 95 nM |
| O=c1c2ccccc2[se]n1Cc1ccccc1 | 364 | 95.5% | CC50 at 48 h [7]: > 100000 nM; EC50 (SARS-CoV-2 [8]): 8010 nM |
| CC(C)(F)C[C@H](N[C@@H](c1ccc(-c2ccc(S(C)(=O)=O)cc2)cc1)C(F)(F)F)C(=O)NC1(C#N)CC1 [ODANACATIB] | – | – | inhibition at 0.5 h, 20 µM (Cathepsin K [6]): 96% |
| CC(C)(C)OC(=O)Nc1ccc(-n2[se]c3ccccc3c2=O)cc1 | – | 32.1% | – |
| O=c1c2cc([N+](=O)[O-])ccc2[se]n1-c1ccccc1 | – | 18.8% | – |
| O=c1c2ccccc2[se]n1-c1ccc(NS(=O)(=O)C2CC2)cc1 | 528 | 89.7% | inhibition [2]: Active; inhibition [4]: inactive |

Reference: ChEMBL document CHEMBL5329206 (Bioorg Med Chem, 2023)
